Measured values taken from PubChem BioAssay (NCI).
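Following 48 hours of exposure in 96-well plates, responses at five concentrations were used to interpolate endpoints linearly. GI50 = concentration required for 50% inhibition of growth. TGI denotes the concentration required for complete inhibition of growth.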

Tests used:
Experiment in all cases: inhibition of tumour cell growth, NCI panel, 48 h
SN12C renal = tested on: SN12C renal
SK-MEL-28 melanoma = tested on: SK-MEL-28 melanoma
UACC-62 melanoma = tested on: UACC-62 melanoma
UACC-257 melanoma = tested on: UACC-257 melanoma
MCF7 breast = tested on: MCF7 breast
COLO 205 colon = tested on: COLO 205 colon
BT-549 breast = tested on: BT-549 breast
SF-295 CNS = tested on: SF-295 CNS
SR leukemia = tested on: SR leukemia
HS 578T breast = tested on: HS 578T breast

| Structure (SMILES) | TGI (SN12C renal) | TGI (SK-MEL-28 melanoma) | TGI (UACC-62 melanoma) | TGI (UACC-257 melanoma) | TGI (MCF7 breast) | TGI (COLO 205 colon) | TGI (BT-549 breast) | TGI (SF-295 CNS) | TGI (SR leukemia) | TGI (HS 578T breast) | GI50 (SN12C renal) | GI50 (SK-MEL-28 melanoma) | GI50 (UACC-257 melanoma) | GI50 (MCF7 breast) | GI50 (COLO 205 colon) | GI50 (BT-549 breast) | GI50 (SF-295 CNS) | GI50 (SR leukemia) | GI50 (HS 578T breast) |
| --- | --- | --- | --- | --- | --- | --- | --- | --- | --- | --- | --- | --- | --- | --- | --- | --- | --- | --- | --- |
| CCCCCCCCOc1ccc(/C=C/C2=[N+](CCO)CCO2)cc1 | 11.9 µM | 9.12 µM | 17.2 µM | 12.4 µM | > 100 µM | 5.69 µM | 14.5 µM | 16.9 µM | 4.66 µM | 17.2 µM |  |  |  |  |  |  |  |  |  |
| COc1ccc2cc(C(C)C(=O)N3C(=O)OCC3(C)C)ccc2c1 (stereo not drawn) | > 100 µM | > 100 µM | > 100 µM | > 100 µM | > 100 µM | > 100 µM | > 100 µM | > 100 µM | > 100 µM |  |  |  |  |  |  |  |  |  |  |
| C[C@H](C1CC2(C)OC2(C)C(=O)O1)[C@H]1CC[C@H]2[C@@H]3[C@@H]4O[C@@H]4[C@@]4(O)CC=CC(=O)[C@]4(C)[C@H]3CC[C@]12C (stereo partly drawn) | > 50 µM | > 50 µM | > 50 µM | > 50 µM | > 50 µM | > 50 µM | > 50 µM | > 50 µM |  |  |  |  |  |  |  |  |  |  |  |
| Cc1nc(-c2cc3ccccc3oc2=O)cs1 | > 100 µM | > 100 µM | > 100 µM | > 100 µM | > 100 µM | > 100 µM | 31 µM | > 100 µM | > 100 µM | 65.8 µM |  |  |  |  |  |  |  |  |  |
| COC(=O)Nc1nc2ccc(NC(=O)c3ccc(I)cc3)cc2[nH]1 | > 100 µM | > 100 µM | > 100 µM | > 100 µM | > 100 µM | > 100 µM | > 100 µM | > 100 µM |  | > 100 µM |  |  |  |  |  |  |  |  |  |
| COc1cc(N(CCC#N)CCC#N)ccc1/C=N\NC(=O)c1ccc(C)cc1 | > 100 µM | > 100 µM | > 100 µM | > 100 µM |  | > 100 µM | > 100 µM | > 100 µM |  | > 100 µM |  |  |  |  |  |  |  |  |  |
| O=c1[nH]nc(Cc2ccc(Cl)cc2)n1/N=C/c1ccc([N+](=O)[O-])o1 | > 100 µM | > 21.9 µM | 9.09 µM | 9.3 µM | > 36.8 µM | > 20.1 µM | 6.8 µM | 16.2 µM | 7.55 µM | 8.24 µM |  |  |  |  |  |  |  |  |  |
| Cc1cc(-c2nc3cccc(O)c3s2)ccc1N | > 100 µM | > 100 µM | 33.1 µM | > 100 µM | 34.1 µM | 58.1 µM | 54.7 µM | > 100 µM | > 100 µM | 46.4 µM |  |  |  |  |  |  |  |  |  |
| O=C(OCc1ccccc1)N1CCNCCNCCN(C(=O)OCc2ccccc2)CCNCC1 | > 100 µM | 29.1 µM | 31.7 µM | 32 µM | 32 µM | 26.8 µM | > 100 µM | 33.7 µM | 34.2 µM | 44 µM |  |  |  |  |  |  |  |  |  |
| O=[N+]([O-])/C(C(Cl)=C(Cl)Cl)=C(/Nc1cccc2cccnc12)n1nnc2ccccc21 | 39.5 µM | 33.5 µM |  | > 100 µM | 46.3 µM | 31.1 µM | 35.8 µM | 42.2 µM |  | 33.3 µM |  |  |  |  |  |  |  |  |  |
| COC(NC(=O)Nc1ccccc1C)(C(F)(F)F)C(F)(F)F | > 100 µM | > 100 µM | > 100 µM |  | > 100 µM | > 100 µM | > 100 µM | > 100 µM | > 100 µM | > 100 µM |  |  |  |  |  |  |  |  |  |
| Cc1cc(S(=O)(=O)/N=C(/NN)Nc2ccc(Cl)cc2)c(S)cc1Cl | 75.8 µM | 60.3 µM | 27.4 µM | 72.5 µM | 52 µM | 33 µM | 34.6 µM |  | > 100 µM | 11.3 µM |  |  |  |  |  |  |  |  |  |
| O=c1[nH]c(=O)n(C2OC(CO)C(O)C2O)cc1OCCCc1ccccc1 (stereo not drawn) | > 100 µM | > 100 µM | > 100 µM | > 100 µM | > 100 µM | > 100 µM |  | > 100 µM | > 100 µM | > 100 µM |  |  |  |  |  |  |  |  |  |
| C#CCOC(=O)c1ccc(OC(C)=O)cc1 | > 100 µM |  | > 100 µM | > 100 µM | > 100 µM | > 100 µM | > 100 µM | > 100 µM | > 100 µM | > 100 µM |  |  |  |  |  |  |  |  |  |
| Cc1c([C@H](C)[C@@H]2NC[C@@H](C)C[C@H]2O)ccc2c1C[C@H]1[C@H]2CC=C2C[C@@H](O)CC[C@@]21C | 69.5 µM | 37.5 µM | 28.1 µM | 27.8 µM | 31.5 µM | 29.4 µM | 54.5 µM | 40.8 µM |  | 66.6 µM |  |  |  |  |  |  |  |  |  |
| CC(C)=CCC[C@@H](C)C1=C(O)C(Nc2ccccc2I)=C(C)C(=O)C1=O | > 75 µM | > 75 µM | 31.3 µM | 74.3 µM | > 75 µM | 33.1 µM | > 75 µM | > 38.9 µM | 21.4 µM | 47.4 µM |  |  |  |  |  |  |  |  |  |
| CC1(C)C=C(/C=N/Nc2ccccc2)C(C#N)=C(O)C1(C#N)C#N | > 100 µM | > 100 µM | > 100 µM | > 100 µM | > 100 µM | > 100 µM |  | > 100 µM | > 100 µM | > 100 µM |  |  |  |  |  |  |  |  |  |
| COc1ccccc1C1C(C#N)=C(N)Oc2n[nH]c(C)c21 (stereo not drawn) | > 100 µM | > 100 µM |  | > 100 µM | > 100 µM | > 100 µM | > 100 µM | > 100 µM | > 100 µM | > 100 µM | 14.8 µM | > 100 µM | > 100 µM | > 100 µM | > 100 µM | > 100 µM | > 100 µM | 37.8 µM | 27.8 µM |
| CCSC1=CC2(O)N(CCc3ccc(OC)c(OC)c3)C(=O)CC2(C(=O)OC)CC1=O (stereo not drawn) | 36.3 µM | > 100 µM | 39.8 µM | 34.6 µM | 40.3 µM | > 100 µM | 32.8 µM | > 100 µM | 58.6 µM |  |  |  |  |  |  |  |  |  |  |
| O=C1/C(=C/c2cccc3ccccc23)CCc2ccc([N+](=O)[O-])cc21 | > 100 µM | > 100 µM | 65.8 µM |  | 86.5 µM | > 100 µM | 45.5 µM | 31.1 µM |  | 47.7 µM |  |  |  |  |  |  |  |  |  |
| CN(C)CC1CCC(CN(C)C)C(=O)C1=O (stereo not drawn) | 32.7 µM | 20.6 µM | 31.3 µM | 6.44 µM | 8.6 µM | 3.5 µM | 20.9 µM | 32.4 µM | 5.08 µM |  |  |  |  |  |  |  |  |  |  |
| Cc1nc(Nc2ccccc2Cl)sc1C(=O)CC(=O)C(N)=O | > 100 µM |  | > 100 µM | > 100 µM | > 100 µM | > 100 µM | > 100 µM | > 100 µM |  | > 100 µM |  |  |  |  |  |  |  |  |  |
